Assay results published in patent US8431563B2 (priority 2010, dated 2013).
Where a name gives a salt, the structure may show the parent alone.

Tests used:
[1] = molecular target: T1, GKRP (Glucokinase Regulatory Protein) with human His-hepatic GK (Homo sapiens, UniProt Q14397); test: GKRP NADPH Coupled Assay; assay type: biochemical; conditions: GK-GKRP EC50 (NADPH-coupled), indirect measure of glucose-6-phosphate, fluorescence; 1 μM GKRP (10×), 20 nM GK (5×)
T1 sequence (Q14397 1-625): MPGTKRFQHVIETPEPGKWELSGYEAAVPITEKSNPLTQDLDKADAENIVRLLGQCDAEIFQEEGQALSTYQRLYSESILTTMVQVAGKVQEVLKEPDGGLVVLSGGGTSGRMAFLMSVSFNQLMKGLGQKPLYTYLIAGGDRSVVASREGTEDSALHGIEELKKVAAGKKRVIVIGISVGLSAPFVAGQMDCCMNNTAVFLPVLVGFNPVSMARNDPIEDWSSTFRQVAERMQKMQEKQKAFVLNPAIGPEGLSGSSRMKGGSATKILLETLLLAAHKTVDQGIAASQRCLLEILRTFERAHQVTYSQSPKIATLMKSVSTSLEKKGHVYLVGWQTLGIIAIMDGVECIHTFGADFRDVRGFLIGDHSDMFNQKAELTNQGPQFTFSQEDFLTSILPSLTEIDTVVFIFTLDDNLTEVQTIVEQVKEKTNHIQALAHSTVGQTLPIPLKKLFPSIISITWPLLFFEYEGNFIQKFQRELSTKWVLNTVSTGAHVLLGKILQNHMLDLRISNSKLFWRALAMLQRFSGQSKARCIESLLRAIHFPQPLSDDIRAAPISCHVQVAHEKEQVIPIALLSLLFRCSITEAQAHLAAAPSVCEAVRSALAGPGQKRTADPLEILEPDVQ
Experimental: (§1) This assay is used to directly measure the formation of ^13C-glucose-6-phosphate from ^13C-glucose by liquid chromatography-mass spectrometry (LC MS/MS). Begin by preparing the following solutions: Compound Buffer (CB): 50 mM Tris, pH 7.5/4 mM MgCl2/6% DMSO/fresh 10 mM DTT from 1M frozen stock. Enzyme Buffer (EB): 50 mM Tris, pH 7.5/4 mM MgCl2/6% DMSO/fresh 0.1% BSA/fresh 0.01% Brij-35 (10% BSA and 1% Brij-35 stock). GK (Glucokinase) Working Stock (5×): Dilute human His-hepatic GK to 30 nM in EB buffer. […] After 30 minutes add 10 μl of GK Working Stock (5×). Re-seal the plate and incubate for another 30 minutes at room temperature while mixing. After the second 30 minutes, stop the reaction by the addition of 50 μl of 100% acetonitrile, seal, and mix for 5-10 minutes. Run 10 μl of this sample through the LC MS/MS (API 3200, Applied Biosystems Inc., Carlsbad, Calif.).
This assay is used as an indirect measure of glucose-6-phosphate (G6P) formed from glucose due to the enzymatic activity of glucokinase. Assay format is the same as for GKRP LC MS/MS Biochemical Assay with the following exceptions. GK Working Stock (5×): Dilute human His-hepatic GK to 20 nM in EB buffer. Stop & Detection Reagent (2×): Dilute β-nicotinamide adenine dinucleotide phosphate sodium salt (β-NADP) (Aldrich-Sigma, St. Louis, Mo.) to 2 mM from 100 mM stock (stock in 10 mM Tris, pH 9.2) and dilute glucose-6-phosphate dehydrogenase (Aldrich-Sigma, St. Louis, Mo.) to 0.04 Unit/μl from 10 Unit/μl (stock in 10 mM Tris pH 7.5/0.05% Brij-35) in 0.2 M Tris, pH 9.2/8% DMSO. After the initial 30 minute incubation add 10 μl of 20 nM GK diluted in EB (5×). Re-seal the plate and incubate for another 1 hour at room temperature while mixing. After 1 hour remove the seal and add 50 μl of Stop & Detection Reagent and incubate for 5 minutes at room temperature while mixing.

[2] = molecular target: T1, GKRP (Glucokinase Regulatory Protein) with human His-hepatic GK; test: GKRP LC MS/MS Biochemical Assay; conditions: 13C-glucose-6-phosphate formation, 1 μM GKRP (10×), 30 nM GK (5×)
Experimental: GKRP LC MS/MS Biochemical Assay
as §1

[3] = molecular target: T1, GKRP (Glucokinase Regulatory Protein) with human His-hepatic GK; test: biochemical; conditions: 13C-glucose-6-phosphate formation; 280 nM GKRP (10×), 30 nM GK (5×); read-out: GK-GKRP EC50 (LC MS/MS-2)
In short: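 Product formation, 13C-glucose-6-phosphate from 13C-glucose, was measured directly by LC MS/MS after acetonitrile quench. The GK reaction ran 30 min at room temperature in Tris pH 7.5 buffer with 4 mM MgCl2 and 6% DMSO. The 5× enzyme stock was 30 nM His-tagged human hepatic glucokinase.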

[4] = molecular target: T2, interaction between glucokinase (GK) and glucokinase regulatory protein (GKRP) (Homo sapiens, UniProt Q14397); test: biochemical; assay type: binding; conditions: avi-tagged GKRP, GK-fluorescein, AlphaScreen beads; read-out: GK-GKRP IC50 (Binding)
T2 sequence (Q14397 1-625): T1 sequence (Q14397 1-625)
In short: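 Measures direct GK–GKRP binding in 20 mM Tris pH 7.5 containing 1 μM sorbitol-6-phosphate, 0.05% BSA and 1 mM DTT. Compound and avi-tagged GKRP sit 20 min at room temperature before GK-fluorescein addition (6 nM in the added buffer); read after 2 h dark incubation at room temperature.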

[5] = read-out: GK-GKRP EC50 (LC MS/MS)

CC(O)(c1ccc(N2CCN(S(=O)(=O)c3cccs3)CC2CN2CC[C@@H](O)C2)cc1)C(F)(F)F (mixture of isomers) [Example 56, (3R)-1-((4-(2-thiophenylsulfonyl)-1-(4-(2,2,2-trifluoro-1-hydroxy-1-methylethyl)phenyl)-2-piperazinyl)methyl)-3-pyrrolidinol]
EC50 [1]: 3.5 µM

C[C@H]1CN(S(=O)(=O)c2cccs2)CCN1c1ccc(C(O)(CO)C(F)(F)F)cc1 (mixture of isomers) [Example 67, 2-(4-((2S)-2-methyl-4-(2-thiophenylsulfonyl)-1-piperazinyl)phenyl)-3,3,3-trifluoro-1,2-propanediol]
EC50 [2, 5]: 0.67 µM

CC(O)(c1ccc(N2CCN(S(=O)(=O)c3nccs3)CC2)cc1)C(F)(F)F (racemic) [Example 32, 1,1,1-trifluoro-2-(4-(4-(1,3-thiazol-2-ylsulfonyl)-1-piperazinyl)phenyl)-2-propanol trifluoroacetate]
EC50 ([2]; GK-GKRP EC50 (LC MS/MS)): 4.75 µM

CC(O)(c1ccc(N2CCN(S(=O)(=O)c3cccs3)C[C@@H]2Cn2ccnc2)cc1)C(F)(F)F (mixture of isomers) [Example 170, 2-(4-((S)-2-((1H-imidazol-1-yl)methyl)-4-(thiophen-2-ylsulfonyl)piperazin-1-yl)phenyl)-1,1,1-trifluoro-2-propanol]
EC50 [1]: 0.762 µM
EC50 [3]: 0.942 µM

CC(O)(c1ccc(N2CCN(S(=O)(=O)c3cccs3)C[C@@H]2Cn2ccc3nccnc32)cc1)C(F)(F)F (mixture of isomers) [Example 171, 2-(4-((S)-2-((5H-pyrrolo[2,3-b]pyrazin-5-yl)methyl)-4-(thiophen-2-ylsulfonyl)piperazin-1-yl)phenyl)-1,1,1-trifluoro-2-propanol]
EC50 [1]: 0.649 µM
EC50 [3]: 0.801 µM

CC(O)(c1ccc(N2CCN(S(=O)(=O)c3cccs3)C[C@@H]2Cn2ccc3cccnc32)cc1)C(F)(F)F (mixture of isomers) [Example 172, 2-(4-((S)-2-((1H-pyrrolo[2,3-b]pyridin-1-yl)methyl)-4-(thiophen-2-ylsulfonyl)piperazin-1-yl)phenyl)-1,1,1-trifluoro-2-propanol]
EC50 [1]: 0.253 µM
EC50 [3]: 0.249 µM

O=S(=O)(c1cccs1)N1CCN(c2ccc(C(O)(C(F)(F)F)C(F)(F)F)cc2)C(Cc2cccc(O)c2)C1 (racemic) [Example 176, 3-((1-(4-(1,1,1,3,3,3-hexafluoro-2-hydroxypropan-2-yl)phenyl)-4-(thiophen-2-ylsulfonyl)piperazin-2-yl)methyl)phenol]
EC50 [1]: 1.81 µM

CC(O)(c1ccc(N2CCN(S(=O)(=O)c3ccccc3)CC2)cc1)C(F)(F)F (single isomer, unassigned) [Example 24 Peak #2, 1,1,1-trifluoro-2-(4-(4-(phenylsulfonyl)-1-piperazinyl)phenyl)-2-propanol]
EC50 ([2]; GK-GKRP EC50 (LC MS/MS)): 3.01 µM

C[C@H]1CN(S(=O)(=O)c2nccs2)CCN1c1ccc(C(C)(O)C(F)(F)F)cc1 (single isomer, unassigned) [Example 34 Peak #1]
EC50 [1]: 2.5 µM

CC(O)(c1ccc(N2CCN(S(=O)(=O)c3cccs3)CC2CC2CCOCC2)cc1)C(F)(F)F (single isomer, unassigned) [Example 37 Peak #3, 1,1,1-trifluoro-2-(4-(2-(tetrahydro-2H-pyran-4-ylmethyl)-4-(2-thiophenylsulfonyl)-1-piperazinyl)phenyl)-2-propanol]
EC50 [1]: 13 µM

CC(O)(c1ccc(N2CCN(S(=O)(=O)c3cccs3)CC2CC2CCOCC2)cc1)C(F)(F)F (single isomer, unassigned) [Example 37 Peak #4, 1,1,1-trifluoro-2-(4-(2-(tetrahydro-2H-pyran-4-ylmethyl)-4-(2-thiophenylsulfonyl)-1-piperazinyl)phenyl)-2-propanol]
EC50 [1]: > 50 µM

C[C@H]1COCCN1CC1CN(S(=O)(=O)c2cccs2)CCN1c1ccc(C(C)(O)C(F)(F)F)cc1 (single isomer, unassigned) [Example 45 Peak #3]
EC50 [1]: 15.1 µM

O=S(=O)(c1cccs1)N1CCN(c2ccc(C(O)(CO)C(F)(F)F)cc2)CC1 (single isomer, unassigned) [Example 66 Peak #1, 3,3,3-trifluoro-2-(4-(4-(2-thiophenylsulfonyl)-1-piperazinyl)phenyl)-1,2-propanediol]
EC50 [2, 5]: 4.43 µM

O=S(=O)(c1cccs1)N1CCN(c2ccc(C(O)(CO)C(F)(F)F)cc2)CC1 (single isomer, unassigned) [Example 66 Peak #2, 3,3,3-trifluoro-2-(4-(4-(2-thiophenylsulfonyl)-1-piperazinyl)phenyl)-1,2-propanediol]
EC50 [2, 5]: 1.26 µM

O=S(=O)(c1cccs1)N1CCN(c2ccc(C(O)(CO)C(F)(F)F)cc2)[C@@H](Cc2ccccc2)C1 (single isomer, unassigned) [Example 68 Peak #1]
EC50 ([2]; GK-GKRP EC50 (LC MS/MS)): 0.87 µM

O=S(=O)(c1cccs1)N1CCN(c2ccc(C(O)(CO)C(F)(F)F)cc2)[C@@H](Cc2ccccc2)C1 (single isomer, unassigned) [Example 68 Peak #2]
EC50 ([2]; GK-GKRP EC50 (LC MS/MS)): 0.094 µM

O=S(=O)(c1cccs1)N1CCN(c2ccc(C(O)(C(F)(F)F)C(F)(F)F)cc2)C[C@H]1C1CC1 [Example 14, 2-(4-((3R)-3-cyclopropyl-4-(2-thiophenylsulfonyl)-1-piperazinyl)phenyl)-1,1,1,3,3,3-hexafluoro-2-propanol]
EC50 [1]: 5 µM

C[C@H]1CN(S(=O)(=O)c2ccoc2)CCN1c1ccc(C(C)(O)C(F)(F)F)cc1 (stereo partly drawn) [Example 30, 1,1,1-trifluoro-2-(4-((2S)-4-(3-furanylsulfonyl)-2-methyl-1-piperazinyl)phenyl)-2-propanol]
EC50 [1]: 3.12 µM

C[C@H]1COCCN1C[C@H]1CN(S(=O)(=O)c2ccc(N)nc2)CCN1c1ccc(C(O)(C(F)(F)F)C(F)(F)F)cc1 [Example 124, 2-(4-((2S)-4-((6-amino-3-pyridinyl)sulfonyl)-2-(((3S)-3-methyl-4-morpholinyl)methyl)-1-piperazinyl)phenyl)-1,1,1,3,3,3-hexafluoro-2-propanol]
EC50 [1]: 0.001 µM
EC50 [3]: 0.018 µM

CS(=O)(=O)N(C[C@H]1CN(S(=O)(=O)c2ccc(N)nc2)CCN1c1ncc(C(O)(C(F)(F)F)C(F)(F)F)cn1)c1ccccc1 [Example 234, N-(((2R)-4-((6-amino-3-pyridinyl)sulfonyl)-1-(5-(2,2,2-trifluoro-1-hydroxy-1-(trifluoromethyl)ethyl)-2-pyrimidinyl)-2-piperazinyl)methyl)-N-phenylmethanesulfonamide]
IC50 [4]: 0.004 µM
EC50 [3]: 0.017 µM
